Test results as given in US6566547B1, “Fungicides” (Zeneca Limited, priority 1984, dated 2003).
Where a name gives a salt, the structure may show the parent alone.

CO/C=C(/C(=O)OC)c1ccccc1 (as salt: sulphate) showed a melting point of 37 to 38 °C.
